Results reported in ChEMBL document CHEMBL1909046, “DrugMatrix in vitro pharmacology data”.

Assays:
[1] = DRUGMATRIX: Glutamate, AMPA radioligand binding (ligand: [3H] AMPA); type: cell membranes, Rattus norvegicus, Wistar, Cerebral cortex, Membrane; conditions: Not Active = under 50% inhibition at 10 µM
[2] = DRUGMATRIX: Glutamate, NMDA, Phencyclidine radioligand binding (ligand: [3H] TCP); type: cell membranes, Rattus norvegicus, Wistar, Cerebral cortex, Membrane; conditions: Not Active = under 50% inhibition at 10 µM
Glycine receptor = Glycine receptor (Rattus norvegicus, UniProt P22771+P24524+P07727+P20781); type: cell membranes, Wistar, Spinal cord, Membrane; also: in other assays of this panel Not Active means under 50% inhibition at 10 µM
[3] = biological target: T1, Receptor-type tyrosine-protein phosphatase C (Homo sapiens, UniProt P08575); design: species or system Escherichia coli;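 also: inhibition of CD45 enzyme activity measured using DiFMUP as substrate; in other assays of this panel Not Active means under 50% inhibition at 10 µM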
T1 sequence (P08575 whole entry): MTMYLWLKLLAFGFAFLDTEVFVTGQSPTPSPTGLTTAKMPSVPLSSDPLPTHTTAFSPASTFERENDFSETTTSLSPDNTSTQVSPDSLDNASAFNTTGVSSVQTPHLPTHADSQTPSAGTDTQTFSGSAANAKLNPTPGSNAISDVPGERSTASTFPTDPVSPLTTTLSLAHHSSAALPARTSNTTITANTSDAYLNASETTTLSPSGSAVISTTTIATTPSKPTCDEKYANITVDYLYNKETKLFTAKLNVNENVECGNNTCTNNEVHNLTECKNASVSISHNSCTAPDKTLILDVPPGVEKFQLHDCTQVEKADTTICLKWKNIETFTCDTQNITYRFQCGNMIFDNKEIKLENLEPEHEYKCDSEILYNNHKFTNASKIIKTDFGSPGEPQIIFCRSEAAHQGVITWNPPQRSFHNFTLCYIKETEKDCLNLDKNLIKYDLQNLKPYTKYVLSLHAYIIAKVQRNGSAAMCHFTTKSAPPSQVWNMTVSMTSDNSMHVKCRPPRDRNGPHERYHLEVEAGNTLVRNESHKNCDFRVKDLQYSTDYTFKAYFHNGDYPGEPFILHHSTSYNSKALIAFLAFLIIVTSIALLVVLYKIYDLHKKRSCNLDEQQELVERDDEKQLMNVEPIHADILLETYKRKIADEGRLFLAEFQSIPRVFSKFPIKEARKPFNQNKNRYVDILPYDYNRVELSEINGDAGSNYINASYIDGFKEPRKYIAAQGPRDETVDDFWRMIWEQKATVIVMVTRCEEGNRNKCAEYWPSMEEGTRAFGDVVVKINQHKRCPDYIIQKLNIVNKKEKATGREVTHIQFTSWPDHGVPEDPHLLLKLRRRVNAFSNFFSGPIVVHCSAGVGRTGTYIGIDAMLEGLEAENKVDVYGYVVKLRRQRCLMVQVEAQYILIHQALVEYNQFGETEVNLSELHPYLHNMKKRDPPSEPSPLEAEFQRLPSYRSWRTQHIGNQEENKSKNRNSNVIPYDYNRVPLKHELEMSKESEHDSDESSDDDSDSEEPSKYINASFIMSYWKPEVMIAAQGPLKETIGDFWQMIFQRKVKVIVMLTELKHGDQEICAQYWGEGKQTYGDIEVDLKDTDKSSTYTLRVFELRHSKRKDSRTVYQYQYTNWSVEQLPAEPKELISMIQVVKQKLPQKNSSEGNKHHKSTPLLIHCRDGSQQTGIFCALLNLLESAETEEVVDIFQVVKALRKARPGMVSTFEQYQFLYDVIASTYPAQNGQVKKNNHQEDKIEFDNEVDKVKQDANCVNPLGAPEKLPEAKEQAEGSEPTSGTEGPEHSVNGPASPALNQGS

[4] = DRUGMATRIX: Glutamate, Kainate radioligand binding (ligand: [3H] Kainic acid); type: cell membranes, Rattus norvegicus, Wistar, Brain, Membrane; conditions: Not Active = under 50% inhibition at 10 µM
[5] = DRUGMATRIX: Purinergic P2X radioligand binding (ligand: [3H] alpha, beta-Methylene-ATP); type: cell membranes, Oryctolagus cuniculus, New Zealand albino, Urinary bladder, Membrane; conditions: Not Active = under 50% inhibition at 10 µM
[6] = biological target: Delta-type opioid receptor (Homo sapiens, UniProt P41143); type: cell membranes, Membrane; conditions: hek293; also: in other assays of this panel Not Active means under 50% inhibition at 10 µM
[7] = biological target: T2, Neuropeptide Y receptor type 1 (Homo sapiens, UniProt P25929); type: cell membranes, Membrane; conditions: sk-n-mc; also: in other assays of this panel Not Active means under 50% inhibition at 10 µM
T2 sequence (P25929 whole entry): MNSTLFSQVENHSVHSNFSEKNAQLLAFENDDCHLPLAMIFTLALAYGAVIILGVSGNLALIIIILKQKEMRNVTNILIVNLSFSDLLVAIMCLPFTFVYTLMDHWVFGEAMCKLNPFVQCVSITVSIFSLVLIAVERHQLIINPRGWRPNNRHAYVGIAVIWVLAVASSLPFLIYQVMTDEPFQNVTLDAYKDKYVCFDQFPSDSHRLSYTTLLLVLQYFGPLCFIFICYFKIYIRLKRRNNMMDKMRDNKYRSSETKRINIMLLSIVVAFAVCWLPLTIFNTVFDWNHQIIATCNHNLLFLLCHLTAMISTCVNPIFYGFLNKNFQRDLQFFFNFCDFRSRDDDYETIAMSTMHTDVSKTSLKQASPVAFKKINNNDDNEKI

Sequence of Delta-type opioid receptor (P41143 whole entry): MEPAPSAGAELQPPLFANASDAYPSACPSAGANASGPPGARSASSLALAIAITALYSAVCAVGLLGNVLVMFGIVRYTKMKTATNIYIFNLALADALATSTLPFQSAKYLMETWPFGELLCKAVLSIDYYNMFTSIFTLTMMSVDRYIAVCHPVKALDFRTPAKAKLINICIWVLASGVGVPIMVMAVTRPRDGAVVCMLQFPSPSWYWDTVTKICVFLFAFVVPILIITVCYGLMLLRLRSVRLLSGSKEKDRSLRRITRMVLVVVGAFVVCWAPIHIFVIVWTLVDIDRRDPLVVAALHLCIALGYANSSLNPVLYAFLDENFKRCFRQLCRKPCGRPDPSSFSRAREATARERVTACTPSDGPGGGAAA

Nc1cc(N2CCCCC2)nc(N)[n+]1[O-] [MINOXIDIL]
Not Active: IC50 [1] | Ki [1] | IC50 [2] | Ki [2] | IC50 (Glycine receptor) | IC50 [3] | IC50 [4] | Ki [4] | IC50 [5] | Ki [5] | IC50 [6] | IC50 [7]

CO[C@H]1/C=C/O[C@@]2(C)Oc3c(C)c(O)c4c(O)c(c(/C=N/N5CCN(C6CCCC6)CC5)c(O)c4c3C2=O)NC(=O)/C(C)=C\C=C\[C@H](C)[C@H](O)[C@@H](C)[C@@H](O)[C@@H](C)[C@H](OC(C)=O)[C@@H]1C [RIFAPENTINE]
Not Active: IC50 [1] | Ki [1] | IC50 [2] | Ki [2] | IC50 (Glycine receptor) | IC50 [3] | IC50 [4] | Ki [4] | IC50 [5] | Ki [5] | IC50 [6] | IC50 [7]

CCCCOc1cc(CC2CNC(=O)N2)ccc1OC (stereo unspecified) [RO-201724]
Not Active: IC50 [1] | Ki [1] | IC50 [2] | Ki [2] | IC50 (Glycine receptor) | IC50 [3] | IC50 [4] | Ki [4] | IC50 [5] | Ki [5] | IC50 [6] | IC50 [7]

CC[C@@H](C(=O)[C@@H](C)[C@@H](O)[C@H](C)[C@@H]1O[C@@H]([C@@H](CC)C(=O)O)CC[C@@H]1C)[C@H]1O[C@]2(C=C[C@@H](O)[C@]3(CC[C@@](C)([C@H]4CC[C@](O)(CC)[C@H](C)O4)O3)O2)[C@H](C)C[C@@H]1C [SALINOMYCIN]
Not Active: IC50 [1] | Ki [1] | IC50 [2] | Ki [2] | IC50 (Glycine receptor) | IC50 [3] | IC50 [4] | Ki [4] | IC50 [5] | Ki [5] | IC50 [6] | IC50 [7]

O=C(Oc1ccccc1C(=O)O)c1ccccc1O [SALSALATE]
Not Active: IC50 [1] | Ki [1] | IC50 [2] | Ki [2] | IC50 (Glycine receptor) | IC50 [3] | IC50 [4] | Ki [4] | IC50 [5] | Ki [5] | IC50 [6] | IC50 [7]

O=C(O)c1cn(-c2ccc(F)cc2)c2cc(N3CCNCC3)c(F)cc2c1=O [SARAFLOXACIN]
Not Active: IC50 [1] | Ki [1] | IC50 [2] | Ki [2] | IC50 (Glycine receptor) | IC50 [3] | IC50 [4] | Ki [4] | IC50 [5] | Ki [5] | IC50 [6] | IC50 [7]

CC(C)NCC(O)c1ccc(NS(C)(=O)=O)cc1 (stereo unspecified) [SOTALOL]
Not Active: IC50 [1] | Ki [1] | IC50 [2] | Ki [2] | IC50 (Glycine receptor) | IC50 [3] | IC50 [4] | Ki [4] | IC50 [5] | Ki [5] | IC50 [6] | IC50 [7]

O.O.O.O.O.O.[Cl-].[Cl-].[Sr+2] [STRONTIUM CHLORIDE HEXAHYDRATE]
Not Active: IC50 [1] | Ki [1] | IC50 [2] | Ki [2] | IC50 (Glycine receptor) | IC50 [3] | IC50 [4] | Ki [4] | IC50 [5] | Ki [5] | IC50 [6] | IC50 [7]

O=C1C(CC[S+]([O-])c2ccccc2)C(=O)N(c2ccccc2)N1c1ccccc1 (stereo unspecified) [SULFINPYRAZONE]
Not Active: IC50 [1] | Ki [1] | IC50 [2] | Ki [2] | IC50 (Glycine receptor) | IC50 [3] | IC50 [4] | Ki [4] | IC50 [5] | Ki [5] | IC50 [6] | IC50 [7]

NC(=O)N1C(=O)/C(=C(\O)c2cccs2)c2cc(Cl)ccc21 [TENIDAP]
Not Active: IC50 [1] | Ki [1] | IC50 [2] | Ki [2] | IC50 (Glycine receptor) | IC50 [3] | IC50 [4] | Ki [4] | IC50 [5] | Ki [5] | IC50 [6] | IC50 [7]

COc1cc2nc(N3CCN(C(=O)C4CCCO4)CC3)nc(N)c2cc1OC (stereo unspecified) [TERAZOSIN]
Not Active: IC50 [1] | Ki [1] | IC50 [2] | Ki [2] | IC50 (Glycine receptor) | IC50 [3] | IC50 [4] | Ki [4] | IC50 [5] | Ki [5] | IC50 [6] | IC50 [7]

CN(C/C=C/C#CC(C)(C)C)Cc1cccc2ccccc12 [TERBINAFINE]
Not Active: IC50 [1] | Ki [1] | IC50 [2] | Ki [2] | IC50 (Glycine receptor) | IC50 [3] | IC50 [4] | Ki [4] | IC50 [5] | Ki [5] | IC50 [6] | IC50 [7]

CCCCNc1ccc(C(=O)OCCN(C)C)cc1 [TETRACAINE]
Not Active: IC50 [1] | Ki [1] | IC50 [2] | Ki [2] | IC50 (Glycine receptor) | IC50 [3] | IC50 [4] | Ki [4] | IC50 [5] | Ki [5] | IC50 [6] | IC50 [7]

Cn1c(=O)c2nc[nH]c2n(C)c1=O.O [THEOPHYLLINE]
Not Active: IC50 [1] | Ki [1] | IC50 [2] | Ki [2] | IC50 (Glycine receptor) | IC50 [3] | IC50 [4] | Ki [4] | IC50 [5] | Ki [5] | IC50 [6] | IC50 [7]

CS(=O)(=O)c1ccc([C@@H](O)[C@@H](CO)NC(=O)C(Cl)Cl)cc1 [THIAMPHENICOL]
Not Active: IC50 [1] | Ki [1] | IC50 [2] | Ki [2] | IC50 (Glycine receptor) | IC50 [3] | IC50 [4] | Ki [4] | IC50 [5] | Ki [5] | IC50 [6] | IC50 [7]

CCN(CC)CCNC(=O)c1cc(S(C)(=O)=O)ccc1OC [TIAPRIDE]
Not Active: IC50 [1] | Ki [1] | IC50 [2] | Ki [2] | IC50 (Glycine receptor) | IC50 [3] | IC50 [4] | Ki [4] | IC50 [5] | Ki [5] | IC50 [6] | IC50 [7]

Clc1ccccc1CN1CCc2sccc2C1 [TICLOPIDINE]
Not Active: IC50 [1] | Ki [1] | IC50 [2] | Ki [2] | IC50 (Glycine receptor) | IC50 [3] | IC50 [4] | Ki [4] | IC50 [5] | Ki [5] | IC50 [6] | IC50 [7]

NC1CCN(c2nc3c(cc2F)c(=O)c(C(=O)O)cn3-c2ccc(F)cc2F)C1 (stereo unspecified) [TOSUFLOXACIN]
Not Active: IC50 [1] | Ki [1] | IC50 [2] | Ki [2] | IC50 (Glycine receptor) | IC50 [3] | IC50 [4] | Ki [4] | IC50 [5] | Ki [5] | IC50 [6] | IC50 [7]
